Test results reported in US20260048049A1, “METHODS FOR TREATING CANCER USING INHALED ANGIOGENESIS INHIBITOR” (Pulmatrix Operating Company, Inc., priority 2022, published 2026).
Like-named read-outs stand apart in the source and are kept apart here.

How the values were obtained:
[1] = tested on: Calu-3 cell line epithelial cell monolayers; experiment: cNGI integrated dissolution and permeability study; format: in vitro ADME; conditions: Calu-3 ALI monolayer, stage 4 of cNGI
From the text: This was done using the following equation: […]

[2] = cited from earlier work
[3] = UniDose POD in vitro dissolution of the impactor stage mass (ISM); format: physicochemical; conditions: 500 ml PBS pH 7.4 + 2.0% SDS, 37° C.
From the text: The following in vitro dissolution model was used to understand the dissolution properties of itraconazole containing dry powder aerosols. The aerosol particles were collected at well-defined aerosol particle size distribution (APSD) cut-offs using the Next Generation Impactor (NGI) (Copley Scientific, UK), and then the dissolution behavior simulated using model lung fluid.
A UniDose™ (Nanopharm, Newport, United Kingdom) aerosol dose collection system combined with a modified next generation impactor (NGI) was used to uniformly deposit the impactor stage mass (ISM), which is defined as the dose collected on and below stage 2 of a next generation impactor, onto a suitable filter for subsequent dissolution studies in a USP V—Paddle over disk (POD) apparatus.
The aerosol dose was collected in the UniDose system. […] The UniDose collection system was used to uniformly deposit the whole impactor stage mass (i.e., below stage 2 of an NGI) onto a glass microfiber filter membrane, which can be seen as where the circles (representing particles or droplets) deposit. The filter was placed into a disk cassette and dissolution studies were undertaken using 500 ml PBS pH 7.4+2.0% SDS in a USP Apparatus II POD (Paddle Over Disk, USP V) at 37° C. For all studies, sink conditions were maintained within the vessel. […]

## CCC(C)n1ncn(-c2ccc(N3CCN(c4ccc(OCC5COC(Cn6cncn6)(c6ccc(Cl)cc6Cl)O5)cc4)CC3)cc2)c1=O (stereo not shown) [Pure ITZ, itraconazole]
[1]
  dissolution and permeability kinetics: slower dissolution and permeability kinetics than the other formulations
[2]; capsules
  plasma protein binding: 99.6%
[2]; oral solution
  plasma protein binding: 99.8%
[3]
  half-life: 1.7 h
